For eleven compounds, EC50 results are on record in patent US20230203021A1, “GLP-1 RECEPTOR AGONIST, PHARMACEUTICAL COMPOSITION COMPRISING SAME, AND METHOD FOR PREPARING SAME” (LG CHEM, LTD., priority 2020, published 2023).

The target in the assay is T1, hGLP-1R (Homo sapiens, UniProt P43220).
T1 construct: expressed in transfected cells; host or cells: CHO-K1
T1 sequence (P43220 24-463): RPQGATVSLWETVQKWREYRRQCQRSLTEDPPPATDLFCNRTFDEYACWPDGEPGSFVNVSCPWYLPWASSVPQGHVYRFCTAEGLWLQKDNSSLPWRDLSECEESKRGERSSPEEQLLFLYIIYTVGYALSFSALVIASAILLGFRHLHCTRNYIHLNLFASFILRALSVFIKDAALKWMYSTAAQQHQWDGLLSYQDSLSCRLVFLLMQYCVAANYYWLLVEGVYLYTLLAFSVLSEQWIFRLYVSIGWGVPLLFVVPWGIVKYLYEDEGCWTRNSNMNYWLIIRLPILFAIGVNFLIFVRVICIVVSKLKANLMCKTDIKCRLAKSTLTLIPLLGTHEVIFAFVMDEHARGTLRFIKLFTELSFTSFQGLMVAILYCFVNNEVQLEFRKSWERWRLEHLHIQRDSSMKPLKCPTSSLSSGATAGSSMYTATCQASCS
In words: Measurement of activity of GLP-1R agonist (cell-based luciferase assay), CHO-K1/hGLP-1R/CRE-luciferase cell line. The conditions noted are these: GLP-1R activity; CHO-K1/hGLP-1R/CRE-luciferase cells, 9 concentrations, four hours of incubation, Bright-Glo luminescence. The method, then:
15,000 cells of a CHO-K1/hGLP-1R/CRE-luciferase cell line were seeded in a 96-well plate. A medium used herein was Ham’s F-12 Nutrient medium. The cells were incubated for 18 hours in a 5% CO2 incubator which was maintained at 37° C., and then treated with drugs. Each drug dispensed at 9 different concentrations was dissolved in a DMEM/F-12 + 1% FBS medium, and the cell line was treated with each of 100 µl thereof. After four hours of incubation, a Bright-Glo® luciferase assay system kit was used to add 30 µl of an assay reagent per well. A plate was stored at room temperature for 15 minutes, and then luminescence was measured using a SpectraMax M5 reader.
As usually defined, the EC50 is the midpoint of the concentration-response curve. Higher therefore signals a less potent agent. In the case of `N#Cc1ccc(COc2cccc(-c3ccc(Oc4nc5ccc(C(=O)O)cc5n4C[C@@H]4CCO4)cc3)n2)c(F)c1` [Example 6, (S)-2-(4-(6-((4-cyano-2-fluorobenzyl)oxy)pyridin-2-yl)phenoxy)-1-(oxetan-2-ylmethyl)-1H-benzo[d]imidazole-6-carboxylic acid], the 50% effective concentration (EC50) amounted to 21 nM. In turn, `O=C(O)c1ccc2nc(Oc3ccc(-c4cccc(OCc5ccc(Cl)cc5F)n4)cc3)n(CC3CCCO3)c2c1` (centres unmarked) [Example 28, 2-(4-(6-((4-chloro-2-fluorobenzyl)oxy)pyridin-2-yl)phenoxy)-1-((tetrahydrofuran-2-yl)methyl)-1H-benzo[d]imidazole-6-carboxylic acid] displayed an EC50 of 1.12 nM. Regarding `O=C(O)c1ccc2nc(Cc3ccc(-c4cccc(OCc5ccc(Cl)cc5F)n4)c(F)c3)n(Cc3cnco3)c2c1` [Example 23, 2-(4-(6-((4-chloro-2-fluorobenzyl)oxy)pyridin-2-yl)-3-fluorobenzyl)-1-(oxazol-5-ylmethyl)-1H-benzo[d]imidazole-6-carboxylic acid], the 50% effective concentration (EC50) was determined as 0.061 nM.

For `O=C(O)c1ccc2nc(Cc3ccc(-c4cccc(OCc5ccc(Cl)cc5F)n4)cc3F)n(Cc3cnco3)c2c1` [Example 11, 2-(4-(6-((4-chloro-2-fluorobenzyl)oxy)pyridin-2-yl)-2-fluorobenzyl)-1-(oxazol-5-ylmethyl)-1H-benzo[d]imidazole-6-carboxylic acid], a half-maximal effect (EC50) was put at 0.0746 nM. `CCCn1cnnc1Cn1c(Cc2ccc(-c3cccc(OCc4ccc(Cl)cc4F)n3)cc2)nc2ccc(C(=O)O)cc21` [Example 24, 2-(4-(6-((4-chloro-2-fluorobenzyl)oxy)pyridin-2-yl)benzyl)-1-((4-propyl-4H-1,2,4-triazol-3-yl)methyl)-1H-benzo[d]imidazole-6-carboxylic acid] had a concentration giving a half-maximal response (EC50) of 0.167 nM. For `O=C(O)c1ccc2nc(Cc3ccc(-c4cccc(OCc5ccc(Cl)cc5F)n4)cc3)n(C[C@@H]3CCOC3)c2c1` [Example 35, (S)-2-(4-(6-((4-chloro-2-fluorobenzyl)oxy)pyridin-2-yl)benzyl)-1-((tetrahydrofuran-3-yl)methyl)-1H-benzo[d]imidazole-6-carboxylic acid], the response was half-maximal at 0.784 nM (EC50).

The compound `O=C(O)c1ccc2nc(Oc3c(F)cc(-c4cccc(OCc5ccc(Cl)cc5F)n4)cc3F)n(C[C@@H]3CCO3)c2c1` [Example 19, (S)-2-(4-(6-((4-chloro-2-fluorobenzyl)oxy)pyridin-2-yl)-2,6-difluorophenoxy)-1-(oxetan-2-ylmethyl)-1H-benzo[d]imidazole-6-carboxylic acid] registered an EC50 of 1.33 nM. Against the preceding compound, the EC50 is about 1.7-fold higher. For the compound `O=C(O)c1ccc2nc(Cc3ccc(-c4cccc(OCc5ccc(C(F)(F)F)cc5F)n4)cc3)n(C[C@@H]3CCCO3)c2c1` [Example 29, (S)-2-(4-(6-((2-fluoro-4-(trifluoromethyl)benzyl)oxy)pyridin-2-yl)benzyl)-1-((tetrahydrofuran-2-yl)methyl)-1H-benzo[d]imidazole-6-carboxylic acid], a half-maximal response (EC50) required 0.208 nM. `O=C(O)c1ccc2nc(Cc3ccc(-c4cccc(OCc5ccc(Cl)cc5F)n4)cc3)n(CC3CCCO3)c2c1` (centres unmarked) [Example 1, 2-(4-(6-((4-chloro-2-fluorobenzyl)oxy)pyridin-2-yl)benzyl)-1-((tetrahydrofuran-2-yl)methyl)-1H-benzo[d]imidazole-6-carboxylic acid]: the EC50 was 0.205 nM. Next, `CCn1cncc1Cn1c(Cc2ccc(-c3cccc(OCc4ccc(C#N)cc4F)n3)cc2)nc2ccc(C(=O)O)cc21` [Example 4, 2-(4-(6-((4-cyano-2-fluorobenzyl)oxy)pyridin-2-yl)benzyl)-1-((1-ethyl-1H-imidazol-5-yl)methyl)-1H-benzo[d]imidazole-6-carboxylic acid]: 0.015 nM. `CCCn1cnnc1Cn1c(Cc2ccc(-c3cccc(OCc4ccc(C(F)(F)F)cc4F)n3)cc2)nc2ccc(C(=O)O)cc21` [Example 25, 2-(4-(6-((2-fluoro-4-(trifluoromethyl)benzyl)oxy)pyridin-2-yl)benzyl)-1-((4-propyl-4H-1,2,4-triazol-3-yl)methyl)-1H-benzo[d]imidazole-6-carboxylic acid] showed an EC50 of 0.402 nM.
